Reference: patent publication US8969392B2, “Pesticide composition comprising propamocarb-fosetylate and an insecticidally active substance” (Bayer Cropscience AG, priority 2006, dated 2015)

Assays:
[1] = system: Myzus persicae; experiment: Myzus persicae test (cabbage leaf dip, mortality); format: in vivo; details: mortality after 6 days, cabbage leaves dipped
Description: (§1) To produce a suitable preparation of active compound, 1 part by weight of active compound is mixed with the stated amount of solvent and emulsifier, and the concentrate is diluted with emulsifier-containing water to the desired concentration.
Cabbage leaves (Brassica oleracea) which are heavily infested by the green peach aphid (Myzus persicae) are treated by being dipped into the preparation of the active compound at the desired concentration.
After a period of time of 6 days, the mortality is determined. 100% means that all the […] have been killed; 0% means that none of the […] have been killed.

[2] = system: Phaedon cochleariae; experiment: Phaedon cochleariae test (cabbage leaf dip, larvae, mortality); format: in vivo; details: mortality after 4 days, cabbage leaves dipped
Description: as §1
Cabbage leaves (Brassica oleracea) are treated by being dipped into the preparation of the active compound at the desired concentration and are infested with larvae of the mustard beetle Phaedon cochleariae as long as the leaves are still moist.
After a period of time of 4 days, the mortality is determined. 100% means that all the […] have been killed; 0% means that none of the […] have been killed.

[3] = system: Plutella xylostella; experiment: Plutella xylostella test (cabbage leaf dip, larvae, mortality); format: in vivo; details: mortality after 6 days, cabbage leaves dipped
Description: as §1
Cabbage leaves (Brassica oleracea) are treated by being dipped into the preparation of the active compound at the desired concentration and are infested with larvae of the diamond black moth Plutella xylostella as long as the leaves are still moist.
After a period of time of 6 days, the mortality is determined. 100% means that all the caterpillars have been killed; 0% means that none of the caterpillars have been killed.

[4] = system: Plasmopara viticola; details: straight use of the compound; WO-99/42468; cited from earlier work

With `CN/C(=N\[N+](=O)[O-])NCc1cnc(Cl)s1` [Clothianidin, clothianidin] the “Efficacy (%)” value ([1]; rate of application 0.8 ppm) was 75%.
In the case of `O=[N+]([O-])NC1=NCCN1Cc1ccc(Cl)nc1` [Imidacloprid, imidacloprid], the “Efficacy (%)” value ([2]; rate of application 20 ppm) was 80%.
For `CCCOC(=O)NCCCN(C)C.CCO[PH](=O)O` [Propamocarb-fosetylate, dimethyl-[3-(propoxycarbonylamino)propyl]ammonium-O-ethylphosphonate], the “Efficacy (%)” value ([1]; rate of application 200 ppm) was 0%, the “Efficacy (%)” value ([2]; rate of application 200 ppm) was 5% and the “Efficacy (%)” value ([3]; rate of application 200 ppm) was 0%. For the same compound, the “fungicide activity to control Plasmopara viticola” value [4] was “Some fungicide activity”.
With `N#C/N=C1\SCCN1Cc1ccc(Cl)nc1` [thiacloprid] the “Efficacy (%)” value ([3]; rate of application 20 ppm) was 20%.
